The target of assay [1] is T1, syntenin‐SDC2 complex (GST-SyntFL / SDC2 peptide) (Homo sapiens, UniProt O00560).
T1 construct: residues 1–298 or syntenin full‐length (FL) for HTRF assays; made in house; host or cells: E. coli ER2566
T1 sequence (O00560 1-298): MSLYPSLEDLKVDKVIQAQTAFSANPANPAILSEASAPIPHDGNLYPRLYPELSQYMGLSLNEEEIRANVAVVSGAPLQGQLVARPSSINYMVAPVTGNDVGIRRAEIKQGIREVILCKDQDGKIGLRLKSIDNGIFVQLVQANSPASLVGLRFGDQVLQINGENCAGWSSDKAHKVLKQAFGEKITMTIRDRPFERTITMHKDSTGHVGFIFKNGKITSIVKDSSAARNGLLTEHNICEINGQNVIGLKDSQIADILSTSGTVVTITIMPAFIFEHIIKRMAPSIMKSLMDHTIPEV
Description: HTRF assay, syntenin-SDC2 interaction. The assay is classed as biochemical. As to conditions: for GST SyntFL Syndecan 2 (signal ratio): 400µM compound, Figure 1c; for inhibition of syntenin PDZ interactions: HTRF primary screen, 400µM, syntenin-SDC2 and syntenin-Frizzled7; for HTRF ASSAY GST-SyntFL SDC2 (HTRF signal ratio): primary screen, 400 µM compound, signal below 0.9 considered effective inhibition, Table S1. A general note: In TR-FRET formats the signal depends on donor and acceptor labels being close together.

For assay [2], the system named is T2, syntenin‐Frizzled7 complex (GST-SyntFL / FZD7 peptide).
T2 construct: residues 1–298 or syntenin full‐length (FL) for HTRF assays; made in house; host or cells: E. coli ER2566
The assay can be described thus: HTRF assay, syntenin-Frizzled 7 interaction. As to conditions: for GST SyntFL Frizzled 7 (signal ratio): 400µM compound, Figure 1c; for HTRF ASSAY GST-SyntFL FZD7 (HTRF signal ratio): primary screen, 400 µM compound, signal below 0.9 considered effective inhibition, Table S1. The assay is classed as biochemical, human. The protocol:
(§1) HTRF assays were performed in white 96Well Small VolumeHiBase Polystyrene Microplates (Greiner) with a total working volume of […], as described previously (Milhas et al., 2016). Briefly, compounds were firstly dispensed into the wells at 400 µM for the primary screen or with serial DMSO dilutions for IC50 measurement assays. Primary screening assays have been performed in monoplicate while IC50 measurements were performed in triplicates. All HTRF reagents were purchased from CisBio Bioassays and reconstituted according to the supplier protocols. The plates were spun for 3 min at 500 × g and then incubated at 4°C for 16 h. The HTRF signals were recorded on a POLAR star Omega plate reader (BMG Labtech) with an excitation filter at 337 nm and fluorescence wavelength measurement at 620 and 665 nm, an integration delay of 60 µs and an integration time of 400 µs. Results were analysed with a two‐wavelength signal ratio: [intensity (665 nm)/intensity (620 nm)] × 10^4. Percentage of inhibition was calculated using the following equation: % inhibition = [(compound signal)–(min signal)]/[(max signal)–(min signal)] × 100, where ‘max signal’ is the signal ratio with the compound vehicle alone (DMSO) and ‘min signal’ the signal ratio without protein B. For IC50 measurements, values were normalized and fitted with Prism (GraphPad software) using the following equation: Y = 100/(1+((X/ IC50)ˆHill slope)).
(§2) The search strategy for PDZ2 syntenin inhibitors was based on the PDZ targeted library developed from Enamine compound collection. The PDZ targeted library was developed to cover virtually all PDZ domains. Consequently, to create the syntenin PDZ2 focused library we used two independent paths: docking of the PDZ targeted library against structures of syntenin PDZ2 available in Protein Data Bank and a random selection from the PDZ targeted library. The docking has produced 21 virtual hits, which were added to 118 randomly selected compounds (10% of the pan PDZ library). The resultant set of 139 compounds, syntenin PDZ library was subjected to experimental validation. The primary screen was performed at 400µM using a previously validated Homogeneous Time Resolved Fluorescence (HTRF) assay (Milhas et al., 2016). HTRF is based on Fluorescence Resonance Energy Transfer (FRET) between two fluorescent reagents. In the present case, Anti‐GST‐Terbium antibody and streptavidin‐bound Dynamic2 were used as donor and acceptor respectively. Interactions between GST PDZ‐fusion proteins and biotinylated peptides containing PDZ binding motifs were challenged with the potential inhibitors. In parallel, control experiments were performed with a biotinylated‐GST to verify that compounds were not interfering with the FRET signal in a non‐specific manner. To identify inhibitors of syntenin PDZ interactions, we tested for the effect of the 139 compounds on syntenin‐SDC2 and syntenin‐Frizzled7 complexes (Figure 1a; Table S1). When the HTRF signal dropped below 0.9, inhibition was considered as effective. […] Noteworthy, these compounds had no effect on other PDZ complexes like GRASP55‐JAM‐B or GRASP55‐JAM‐C and Erbin‐Erbb2 or Erbin‐P0071 (Figure 1c).

The next assay relates to biotinylated‐GST. Description: HTRF control with biotinylated-GST (non-specific interference with FRET signal). The following applies: for GST-biot (signal ratio): 400µM compound, Figure 1c; for effect on control (biotinylated‐GST) FRET signals: HTRF primary screen, 400µM; for HTRF ASSAY GST-biot (HTRF signal ratio, control): primary screen, 400 µM compound, Table S1. The protocol:
as §1, §2

A further assay concerns T3, GRASP55‐JAM‐B complex.
T3 construct: Human GRASP55 tandem PDZ; made in house; host or cells: E. coli BL21 (DE3)
Description: HTRF assay, GRASP55-JAM-B interaction. In kind it is biochemical, human. As to conditions: 400µM compound; Figure 1c. The method, then: as §1, §2

A further assay deals with T4, GRASP55‐JAM‐C complex.
T4 construct: Human GRASP55 tandem PDZ; made in house; host or cells: E. coli BL21 (DE3)
Description: HTRF assay, GRASP55-JAM-C interaction. The following applies: 400µM compound; Figure 1c. The assay is classed as biochemical, human. The method, then:
as §1, §2

The next assay relates to T5, Erbin‐Erbb2 complex.
T5 construct: human Erbin PDZ domain; made in house; host or cells: E. coli BL21 (DE3)
The assay can be described thus: HTRF assay, Erbin-ERBB2 interaction. The assay is classed as biochemical, human. As to conditions: 400µM compound; Figure 1c. The protocol: as §1, §2

For the next assay, the system named is T6, Erbin‐P0071 complex.
T6 construct: human Erbin PDZ domain; made in house; host or cells: E. coli BL21 (DE3)
Description: HTRF assay, Erbin-P0071 interaction. The assay is classed as biochemical, human. As to conditions: 400µM compound; Figure 1c. The protocol:
as §1, §2

In general, inhibition refers to the relative decrease from the control value, in per cent.

On to `CC(C)[C@H](NC(=O)COc1ccc2ccccc2c1)C(=O)O` [Compound C4], for which, in assay [1], the “GST SyntFL Syndecan 2 (signal ratio)” value turned out to be 0.78, the “inhibition of syntenin PDZ interactions” value is given as “inhibit” and the “HTRF ASSAY GST-SyntFL SDC2 (HTRF signal ratio)” value is reported as 0.78. Besides, in assay [2], the “GST SyntFL Frizzled 7 (signal ratio)” value came out at 0.78 and the “HTRF ASSAY GST-SyntFL FZD7 (HTRF signal ratio)” value is listed as 0.77. In the assay on biotinylated‐GST, the “GST-biot (signal ratio)” value is given as 0.97; the “effect on control (biotinylated‐GST) FRET signals” value (“effect on control” below) is given as “no significant effect”; the “HTRF ASSAY GST-biot (HTRF signal ratio, control)” value was determined as 1.02. In the assay on GRASP55‐JAM‐B complex, the “GST-GRASP JAM-B (signal ratio)” value was found to be 0.97. Further, the “GST-GRASP JAM-C (signal ratio)” value in the assay with GRASP55‐JAM‐C complex is given as 0.89. Besides, in the assay with Erbin‐Erbb2 complex, the “GST-Erbin ERBB2 (signal ratio)” value is reported as 1.02. Also, the “GST-Erbin P0071 (signal ratio)” value with Erbin‐P0071 complex stood at 0.89.

Turning to `CC(C)[C@H](NS(=O)(=O)c1ccc2c(c1)OCCCO2)C(=O)O` [Compound C37], in assay [1], the “GST SyntFL Syndecan 2 (signal ratio)” value is 0.74, the “inhibition of syntenin PDZ interactions” value is recorded as “inhibit” and the “HTRF ASSAY GST-SyntFL SDC2 (HTRF signal ratio)” value is 0.73. Besides, in assay [2], the “GST SyntFL Frizzled 7 (signal ratio)” value is 0.7 and the “HTRF ASSAY GST-SyntFL FZD7 (HTRF signal ratio)” value is 0.68. For the same compound, in the assay with biotinylated‐GST, the “GST-biot (signal ratio)” value was 0.97; the “effect on control” value was “no significant effect”; the “HTRF ASSAY GST-biot (HTRF signal ratio, control)” value stood at 1.04. Also, the “GST-GRASP JAM-B (signal ratio)” value in the assay on GRASP55‐JAM‐B complex is reported as 1. Besides, the “GST-GRASP JAM-C (signal ratio)” value in the assay on GRASP55‐JAM‐C complex came out at 1. Besides, in the assay with Erbin‐Erbb2 complex, the “GST-Erbin ERBB2 (signal ratio)” value came out at 1.04. The “GST-Erbin P0071 (signal ratio)” value in the assay on Erbin‐P0071 complex is recorded as 0.95.

As to `CC(C)[C@H](NS(=O)(=O)c1ccc2ccccc2c1)C(=O)O` [Compound C38], in assay [1], the “GST SyntFL Syndecan 2 (signal ratio)” value amounted to 0.58, the “inhibition of syntenin PDZ interactions” value is listed as “inhibit” and the “HTRF ASSAY GST-SyntFL SDC2 (HTRF signal ratio)” value came out at 0.59. Besides, the inhibition at 400 µM in assay [1] (HTRF, 400 µM, syntenin-SDC2 and syntenin-Frizzled 7 complexes, read-out: extent of inhibition of Syntenin‐PDZ complexes) was 40%. Further, in assay [2], the “GST SyntFL Frizzled 7 (signal ratio)” value was determined as 0.55 and the “HTRF ASSAY GST-SyntFL FZD7 (HTRF signal ratio)” value stood at 0.56. In addition, in the assay with biotinylated‐GST, the “GST-biot (signal ratio)” value worked out at 0.96; the “effect on control” value is “no significant effect”; the “HTRF ASSAY GST-biot (HTRF signal ratio, control)” value is on record as 0.92. In the assay with GRASP55‐JAM‐B complex, the “GST-GRASP JAM-B (signal ratio)” value turned out to be 1. Besides, the “GST-GRASP JAM-C (signal ratio)” value with GRASP55‐JAM‐C complex is recorded as 1. In addition, the “GST-Erbin ERBB2 (signal ratio)” value in the assay with Erbin‐Erbb2 complex came out at 0.92. Also, the “GST-Erbin P0071 (signal ratio)” value with Erbin‐P0071 complex was 1.

For `Cc1ccc(S(=O)(=O)N[C@H](C(=O)O)C(C)C)cc1C` [Compound C47], in assay [1], the “GST SyntFL Syndecan 2 (signal ratio)” value was determined as 0.78, the “inhibition of syntenin PDZ interactions” value is given as “inhibit” and the “HTRF ASSAY GST-SyntFL SDC2 (HTRF signal ratio)” value is reported as 0.74. Also, in assay [2], the “GST SyntFL Frizzled 7 (signal ratio)” value was 0.78 and the “HTRF ASSAY GST-SyntFL FZD7 (HTRF signal ratio)” value came to 0.71. In addition, in the assay on biotinylated‐GST, the “GST-biot (signal ratio)” value is 0.99; the “effect on control” value is recorded as “no significant effect”; the “HTRF ASSAY GST-biot (HTRF signal ratio, control)” value is 0.96. Also, the “GST-GRASP JAM-B (signal ratio)” value with GRASP55‐JAM‐B complex was 1.1. Further, the “GST-GRASP JAM-C (signal ratio)” value with GRASP55‐JAM‐C complex stood at 1. Moreover, the “GST-Erbin ERBB2 (signal ratio)” value in the assay with Erbin‐Erbb2 complex was 0.96. The “GST-Erbin P0071 (signal ratio)” value in the assay with Erbin‐P0071 complex is reported as 1.

Source of the values: PMC7737769, “Pharmacological inhibition of syntenin PDZ2 domain impairs breast cancer cell activities and exosome loading with syndecan and EpCAM cargo” (Journal of Extracellular Vesicles, 2020).
